These results are taken from patent publication US8623860B2, “Azetidine derivatives, pharmaceutical compositions and uses thereof” (Boehringer Ingelheim International GmbH, priority 2011, dated 2014).

human ACC2, sequence (O00763 129-2458): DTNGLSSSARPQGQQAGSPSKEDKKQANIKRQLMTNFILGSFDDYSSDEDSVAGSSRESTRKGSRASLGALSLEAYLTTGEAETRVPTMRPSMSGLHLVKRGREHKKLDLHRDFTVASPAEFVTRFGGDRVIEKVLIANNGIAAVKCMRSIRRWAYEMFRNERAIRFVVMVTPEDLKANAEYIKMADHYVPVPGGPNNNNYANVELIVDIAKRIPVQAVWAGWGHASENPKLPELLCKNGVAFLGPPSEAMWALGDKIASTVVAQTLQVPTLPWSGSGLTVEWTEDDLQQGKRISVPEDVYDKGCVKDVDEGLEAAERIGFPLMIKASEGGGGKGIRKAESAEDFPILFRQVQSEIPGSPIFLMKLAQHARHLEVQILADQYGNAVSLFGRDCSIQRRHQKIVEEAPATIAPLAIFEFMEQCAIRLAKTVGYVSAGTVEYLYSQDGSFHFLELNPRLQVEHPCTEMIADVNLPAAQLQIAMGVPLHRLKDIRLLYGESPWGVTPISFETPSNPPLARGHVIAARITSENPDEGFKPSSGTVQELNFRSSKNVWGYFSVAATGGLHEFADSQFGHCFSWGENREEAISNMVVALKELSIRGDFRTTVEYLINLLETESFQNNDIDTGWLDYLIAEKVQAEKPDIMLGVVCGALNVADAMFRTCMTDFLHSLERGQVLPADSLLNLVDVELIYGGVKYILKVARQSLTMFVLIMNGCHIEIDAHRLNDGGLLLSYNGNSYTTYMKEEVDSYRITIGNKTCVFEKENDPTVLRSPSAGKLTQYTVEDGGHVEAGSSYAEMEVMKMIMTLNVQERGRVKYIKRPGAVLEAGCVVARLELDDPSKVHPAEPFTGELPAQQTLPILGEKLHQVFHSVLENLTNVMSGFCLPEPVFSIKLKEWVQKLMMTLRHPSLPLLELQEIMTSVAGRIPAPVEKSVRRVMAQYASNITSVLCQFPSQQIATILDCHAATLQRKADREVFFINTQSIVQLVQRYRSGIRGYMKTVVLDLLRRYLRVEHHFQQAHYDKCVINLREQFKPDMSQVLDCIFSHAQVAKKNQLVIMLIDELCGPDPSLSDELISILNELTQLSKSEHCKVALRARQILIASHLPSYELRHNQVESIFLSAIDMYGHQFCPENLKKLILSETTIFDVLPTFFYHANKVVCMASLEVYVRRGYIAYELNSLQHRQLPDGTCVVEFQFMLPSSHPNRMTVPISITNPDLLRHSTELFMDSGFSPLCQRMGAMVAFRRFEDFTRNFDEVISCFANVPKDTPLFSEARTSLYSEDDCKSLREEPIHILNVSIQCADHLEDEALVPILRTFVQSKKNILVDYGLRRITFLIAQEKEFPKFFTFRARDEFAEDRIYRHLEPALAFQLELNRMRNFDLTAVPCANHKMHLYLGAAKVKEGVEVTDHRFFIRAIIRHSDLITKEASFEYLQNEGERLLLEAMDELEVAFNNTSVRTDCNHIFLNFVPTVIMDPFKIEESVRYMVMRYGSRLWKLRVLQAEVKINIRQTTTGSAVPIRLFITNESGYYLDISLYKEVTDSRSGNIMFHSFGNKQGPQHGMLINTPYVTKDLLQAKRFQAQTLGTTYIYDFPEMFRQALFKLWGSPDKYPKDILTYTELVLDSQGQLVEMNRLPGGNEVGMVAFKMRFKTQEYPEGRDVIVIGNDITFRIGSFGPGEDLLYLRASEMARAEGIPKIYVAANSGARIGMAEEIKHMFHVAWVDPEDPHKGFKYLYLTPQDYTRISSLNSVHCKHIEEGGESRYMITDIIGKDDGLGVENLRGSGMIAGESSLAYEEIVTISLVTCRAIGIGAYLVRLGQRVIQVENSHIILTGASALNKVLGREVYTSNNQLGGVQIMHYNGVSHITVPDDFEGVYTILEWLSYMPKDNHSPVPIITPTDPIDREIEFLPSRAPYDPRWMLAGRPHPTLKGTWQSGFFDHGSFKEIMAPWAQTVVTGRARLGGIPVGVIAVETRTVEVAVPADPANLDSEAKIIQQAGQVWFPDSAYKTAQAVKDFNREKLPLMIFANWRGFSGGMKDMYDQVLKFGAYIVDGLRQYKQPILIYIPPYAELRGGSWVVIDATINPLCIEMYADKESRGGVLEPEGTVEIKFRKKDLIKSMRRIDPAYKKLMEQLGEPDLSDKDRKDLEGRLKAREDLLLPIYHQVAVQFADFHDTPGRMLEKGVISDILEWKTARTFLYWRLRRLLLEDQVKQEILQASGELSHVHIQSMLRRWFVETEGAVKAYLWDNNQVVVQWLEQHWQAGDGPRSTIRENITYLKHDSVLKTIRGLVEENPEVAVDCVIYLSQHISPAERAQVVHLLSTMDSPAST

This test addresses human ACC2 (Homo sapiens (Human), UniProt O00763). The test can be described thus: ACC2 assay, spectrophotometric 384 well assay (NADH-linked, coupled lactate dehydrogenase/pyruvate kinase reaction). It is filed as biochemical. To be noted: hACC2 construct lacking the 128 N-terminal amino acids; 25° C., 340 nm, 15 minutes. As to the method:
Spectrophotometric 384 Well Assay
Malonyl CoA formation by acetyl CoA carboxylases is stoichometrically linked to the consumption of ATP. ACC2 activity is measured in a NADH-linked kinetic method measuring ADP generated during the ACC reaction using a coupled lactate dehydrogenase/pyruvate kinase reaction.
For biological testing, a human ACC2 construct which lacks the 128 amino acids at the N-terminus for increased solubility (nt 385-6966 in Genbank entry AJ575592) is cloned. The protein is then expressed in insect cells using a baculoviral expression system. Protein purification is performed by anion exchange.
All compounds are dissolved in dimethyl sulfoxide (DMSO) to a concentration of 10 mM.
Assay reactions are then carried out in 384-well plates, with hACC2 in an appropriate dilution and at final assay concentrations (f.c.) of 100 mM Tris (pH 7.5), 10 mM trisodium citrate, 25 mM KHCC3, 10 mM MgCl2, 0.5 mg/ml BSA, 3.75 mM reduced L-glutathione, 15 U/ml lactate dehydrogenase, 0.5 mM phosphoenolpyruvate, 15 U/ml pyruvate kinase, compounds at different concentrations at final DMSO concentrations of 1%.
The enzymatic reaction is then started by addition of a mixture of NADH, acetyl Coenzyme A (both 200 μM f.c.) and ATP (500 uM f.c.). The decrease of the optical density (slope S) is then determined at 25° C. at a wavelength of 340 nm over 15 minutes in a spectrophotometric reader.
Each assay microtiter plate contains wells with vehicle instead of compound as controls for the non-inhibited enzyme (100% CTL; ‘HIGH’) and wells without acetyl-CoA as controls for non-specific NADH degradation (0% CTL; ‘LOW’).
The slope S is used for calculation of % CTL=(S(compound)−S(‘LOW’))/(S(‘HIGH’)−S(‘LOW’))*100. Compounds will give values between 100% CTL (no inhibition) and 0% CTL (complete inhibition).
For IC50 value determination, the sample slope in the presence of the test compound after subtraction of the low controls (S(compound)−S(‘LOW’)) are used.
An IC50 value is derived from the compound slopes at different dosages after subtraction of the low controls (S(compound)−S(‘LOW’)) by non-linear regression curve fitting (equation y=(A+((B−A)/(1+((C/x)^D))))).
In the following table the activity expressed as IC50 (μM) of compounds according to the invention is presented wherein the IC50 values are determined in the ACC2 assay as described hereinbefore. The term “Ex.” refers to the example numbers according to the following experimental section.
For `CCCOc1ccc(N2CC(c3ccc(CC(C)NC(C)=O)cc3)C2)cc1` (stereo not shown) [Example 1.01, N-(1-(4-(1-(4-Propoxyphenyl)azetidin-3-yl)phenyl)propan-2-yl)acetamide], the half-maximal inhibitory concentration (IC50) (commonly the concentration at which inhibition is half-maximal) is 510 nM. `CC(=O)NC(C)Cc1ccc(C2CN(c3ccc(OC4CCC4)cc3)C2)cc1` (stereo not shown) [Example 1.02] returned an IC50 of 260 nM. `CC(=O)NC(C)Cc1ccc(C2CN(c3ccc(OC4CC4)cc3)C2)cc1` (stereo not shown) [Example 1.03] had an IC50 of 340 nM. The result for `CC(=O)NC(C)Cc1ccc(C2CN(c3ccc(OCC4CC4)cc3)C2)cc1` (stereo not shown) [Example 1.04] reads 630 nM.

Take `CCCOc1ccc(N2CC(c3ccc(CC(C)NC(C)=O)cc3)C2)cn1` (stereo not shown) [Example 1.05]: half-maximal inhibition (IC50) was put at 900 nM.

On to `CC(=O)NC(C)Cc1ccc(C2CN(c3cnc(OC4CCC4)nc3)C2)cc1` (stereo not shown) [Example 1.06], for which the IC50 is 3810 nM.

Consider `CC(=O)NC(C)Cc1ccc(C2CN(c3cnc(NC4CCC4)nc3)C2)cc1` (stereo not shown) [Example 1.07], for which inhibition was half-maximal at 5630 nM (IC50). Take `CCOc1ccc(N2CC(c3ccc(CC(C)NC(C)=O)cc3)C2)cc1` (stereo not shown) [Example 1.08]: the midpoint of inhibition, the IC50, lay at 650 nM.

`CC(=O)NC(C)Cc1ccc(C2CN(c3ccc(C(C)(C)C)cc3)C2)cc1` (stereo not shown) [Example 1.09] returned an IC50 of 2730 nM.

Take `CC(=O)NC(C)Cc1ccc(C2CN(c3ccc4ncccc4c3)C2)cc1` (stereo not shown) [Example 1.10]: half-maximal inhibition (IC50) required 8100 nM. The same measure for `CCCOc1ccc(N2CC(c3ccc(CC(C)NC(C)=O)cc3)C2)c(OC)c1` (stereo not shown) [Example 1.11]: 600 nM.

Consider `CCCOc1cc(N2CC(c3ccc(CC(C)NC(C)=O)cc3)C2)ccn1` (stereo not shown) [Example 1.12], for which the IC50 stood at 610 nM. The compound `CC(=O)NC(C)Cc1ccc(C2CN(c3ccc4c(c3)OCCO4)C2)cc1` (stereo not shown) [Example 1.13] had an IC50 of 950 nM. Consider `CC(=O)NC(C)CCc1ccc(C2CN(c3ccc4c(c3)OCCO4)C2)cc1` (stereo not shown) [Example 1.14], for which the IC50 was determined as 670 nM.

With `CC(=O)NC(C)CCc1ccc(C2CN(c3ccc(OC4CC4)cc3)C2)cc1` (stereo not shown) [Example 1.15], the IC50 was found to be 480 nM. The same measure for `CCOc1ccc(N2CC(c3ccc(CCC(C)NC(C)=O)cc3)C2)cc1` (stereo not shown) [Example 1.16]: 410 nM. The same measure for `CC(=O)NC(C)CCc1ccc(C2CN(c3ccc(OCC4CC4)cc3)C2)cc1` (stereo not shown) [Example 1.17]: 190 nM; for `CC(=O)NC(C)CCc1ccc(C2CN(c3cccc(OC(C)C)c3)C2)cc1` (stereo not shown) [Example 1.18]: 3180 nM; for `CCOc1ccc(N2CC(c3ccc(C(C)NC(C)=O)cc3)C2)cc1` (stereo not shown) [Example 1.19]: 1130 nM. For the compound `CC(=O)NC(C)c1ccc(C2CN(c3ccc4c(c3)OCCO4)C2)cc1` (stereo not shown) [Example 1.20], the IC50 came to 490 nM. With `CC(=O)NC(C)c1ccc(C2CN(c3ccc(OC4CCCC4)cc3)C2)cc1` (stereo not shown) [Example 1.21], half-maximal inhibition (IC50) required 340 nM.

As to `CCC(C)Nc1ncc(N2CC(c3ccc(C(C)NC(C)=O)cc3)C2)cn1` (stereo not shown) [Example 1.22], the midpoint of inhibition, the IC50, lay at 2080 nM.

Turning to `CC(=O)N[C@@H](C)c1ccc(C2CN(c3ccc(OCC4CC4)cc3)C2)cc1` [Example 1.23], the IC50 worked out at 380 nM. The result for `CC(=O)N[C@@H](C)c1ccc(C2CN(c3ccc(OC4CCC4)cc3)C2)cc1` [Example 1.24] reads 1630 nM.

In the case of `CC(=O)N[C@@H](C)c1ccc(C2CN(c3ccc(OC4CC4)cc3)C2)cc1` [Example 1.25], the midpoint of inhibition, the IC50, lay at 540 nM. In turn, `CCCOc1ccc(N2CC(c3ccc([C@H](C)NC(C)=O)cc3)C2)cc1` [Example 1.26] gave a half-maximal inhibitory concentration (IC50) of 510 nM. Take `CC(=O)N[C@@H](C)c1ccc(C2CN(c3ccc4c(c3)OCCO4)C2)cc1` [Example 1.27]: it took 170 nM to reach half-maximal inhibition (IC50). Consider `CCOc1cccc(N2CC(c3ccc([C@H](C)NC(C)=O)cc3)C2)c1` [Example 1.28], for which inhibition was half-maximal at 680 nM (IC50).

With `CC(=O)N[C@@H](C)c1ccc(C2CN(c3ccc4c(c3)OCCCO4)C2)cc1` [Example 1.29], the IC50 came to 780 nM. The same measure for `CC(=O)NC(C)Cc1ccc(C2CN(c3ncc(OCC4CC4(F)F)cc3F)C2)cc1` (stereo not shown) [Example 1.30]: 740 nM. `CC(=O)N[C@@H](C)c1ccc(C2CN(c3ccc(OCC4CC4(F)F)cn3)C2)cc1` (stereo partly shown) [Example 1.31] registered an IC50 of 600 nM. The result for `CC(=O)N[C@@H](C)c1ccc(C2CN(c3ccnc(N4CCOCC4)n3)C2)cc1` [Example 1.32] reads 9040 nM; that for `CC(=O)N[C@@H](C)c1ccc(C2CN(c3ncc(OCC4CC4(F)F)cn3)C2)cc1` (stereo partly shown) [Example 1.33], 180 nM. The same measure for `CC(=O)N[C@@H](C)c1ccc(C2CN(c3ccc(OCCCF)cn3)C2)cc1` [Example 1.34]: 830 nM; for `CC(=O)N[C@@H](C)c1ccc(C2CN(c3ncc(OCC4CC4(F)F)cc3F)C2)cc1` (stereo partly shown) [Example 1.35]: 180 nM. The result for `CC(=O)NC(C)Cc1ccc(C2CN(c3ncc(Br)cn3)C2)cc1` (stereo not shown) [Example 2.01, N-(1-(4-(1-(5-bromopyrimidin-2-yl)azetidin-3-yl)phenyl)propan-2-yl)acetamide] reads 8560 nM; that for `CCCc1cnc(N2CC(c3ccc(CC(C)NC(C)=O)cc3)C2)nc1` (stereo not shown) [Example 2.02], 3790 nM.

`CC(=O)NC(C)Cc1ccc(C2CN(c3ccc(-c4ccc(Cl)cc4)nn3)C2)cc1` (stereo not shown) [Example 2.03] had an IC50 of 7020 nM. The same measure for `CC(=O)NC(C)CCc1ccc(C2CN(c3ncc(C4CC4)cn3)C2)cc1` (stereo not shown) [Example 2.04]: 2560 nM; for `CC(=O)NC(C)CCc1ccc(C2CN(c3ncc4nc(-c5ccccc5)oc4n3)C2)cc1` (stereo not shown) [Example 2.05]: 810 nM; for `CC(=O)NC(C)CCc1ccc(C2CN(c3cccc(C(F)(F)F)n3)C2)cc1` (stereo not shown) [Example 2.06]: 1420 nM. For `CC(=O)N[C@@H](C)c1ccc(C2CN(c3ncc4nc(-c5ccccc5)oc4n3)C2)cc1` [Example 2.07], inhibition was half-maximal at 340 nM (IC50). In turn, `COc1ccc(-c2cnc(N3CC(c4ccc([C@H](C)NC(C)=O)cc4)C3)nc2)cc1` [Example 2.08] registered an IC50 of 320 nM. The same measure for `CC(=O)N[C@@H](C)c1ccc(C2CN(c3ccc(C(F)(F)F)cn3)C2)cc1` [Example 2.09]: 450 nM; for `CC(=O)N[C@@H](C)c1ccc(C2CN(c3cccc(C(F)(F)F)n3)C2)cc1` [Example 2.10]: 470 nM; for `CC(=O)N[C@@H](C)c1ccc(C2CN(c3nnc(-c4ccccc4)s3)C2)cc1` [Example 2.11]: 7760 nM. The same measure for `CC(=O)N[C@@H](C)c1ccc(C2CN(c3ncc(C4CC4)cn3)C2)cc1` [Example 2.12]: 420 nM; for `CC(=O)N[C@@H](C)c1ccc(C2CN(c3ncc4nc(-c5ccsc5)oc4n3)C2)cc1` [Example 2.13]: 690 nM; for `CC(=O)N[C@@H](C)c1ccc(C2CN(c3ncc(C(F)(F)F)cn3)C2)cc1` [Example 2.15]: 850 nM.

`Cc1oncc1C(=O)N[C@@H](C)c1ccc(C2CN(c3ccc(OCC4CC4)cc3)C2)cc1` [Example 3.01, (S)—N-(1-(4-(1-(4-(cyclopropylmethoxy)phenyl)azetidin-3-yl)phenyl)ethyl)-5-methylisoxazole-4-carboxamide] registered a half-inhibitory concentration (IC50) of 330 nM. Consider `C[C@H](NC(=O)c1cn[nH]c1)c1ccc(C2CN(c3ccc(OCC4CC4)cc3)C2)cc1` [Example 3.02], for which the IC50 was determined as 1060 nM. The result for `C[C@H](NC(=O)C1CC=CC1)c1ccc(C2CN(c3ccc(OCC4CC4)cc3)C2)cc1` [Example 3.03] reads 380 nM.
